Measurements: ChEMBL document CHEMBL1201862, “PubChem BioAssay data set” (2004)
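Cells were grown in 96-well plates and exposed to each compound for 48 hours at five concentrations; endpoints were interpolated linearly between bracketing concentrations, or set to the highest concentration if not reached. GI50 marks 50% less growth.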 Calls of active or inactive are those of the source. No stated cut-off is given here; in the data, active = GI50 up to about 1.1 µM and inactive = higher.

Tests used:
Experiment in all cases: NCI anticancer screen, dose series, 48 h
Hs-578T = system: Hs-578T
OVCAR-3 = system: OVCAR-3
UACC-62 = system: UACC-62
MCF7 = system: MCF7
HL-60 = system: HL-60
MDA-N = system: MDA-N
SF-539 = system: SF-539
HCT-15 = system: HCT-15
SN12C = system: SN12C
NCI-H23 = system: NCI-H23
NCI-H226 = system: NCI-H226
TK-10 = system: TK-10
M14 = system: M14
SNB-75 = system: SNB-75
HCT-116 = system: HCT-116
NCI-H460 = system: NCI-H460
LOX IMVI = system: LOX IMVI
COLO 205 = system: COLO 205
A498 = system: A498
CAKI-1 = system: CAKI-1

Structure (SMILES)	GI50 (Hs-578T)	GI50 (OVCAR-3)	GI50 (UACC-62)	GI50 (MCF7)	GI50 (HL-60)	GI50 (MDA-N)	GI50 (SF-539)	GI50 (HCT-15) [µM]	GI50 (SN12C)	GI50 (NCI-H23)	GI50 (NCI-H226)	GI50 (TK-10)	GI50 (M14)	GI50 (SNB-75)	GI50 (HCT-116)	GI50 (NCI-H460)	GI50 (LOX IMVI)	GI50 (COLO 205)	GI50 (A498)	GI50 (CAKI-1)
Cc1c2c3ccccc3nc-2n(C)c2ccccc12	4.8 µM (inactive)	1.77 µM (inactive)	1.7 µM (inactive)	1.41 µM (inactive)	3.29 µM (inactive)	2.72 µM (inactive)	2.99 µM (inactive)	0.548	1.64 µM (inactive)	2.5 µM (inactive)	2.77 µM (inactive)	1.94 µM (inactive)	3.48 µM (inactive)	2.48 µM (inactive)	0.495 µM (active)	0.396 µM (active)	–	–	–	–
CSc1nc(Cl)c2c(n1)Sc1nc3cc4c(cc3n1C2O)OCCO4 (stereo unspecified)	0.295 µM (active)	0.137 µM (active)	0.125 µM (active)	0.053 µM (active)	–	0.0308 µM (active)	0.0247 µM (active)	0.104	0.526 µM (active)	0.39 µM (active)	0.276 µM (active)	0.962 µM (active)	0.0951 µM (active)	1.74 µM (inactive)	0.0146 µM (active)	0.0897 µM (active)	< 0.0162 µM (active)	0.0509 µM (active)	0.708 µM (active)	–
COc1cccc(C(=O)O[C@H]2[C@@H]3[C@]4(OC(C)=O)CO[C@@H]4C[C@H](O)[C@@]3(C)C(=O)[C@H](OC(C)=O)C3=C(C)[C@@H](OC(=O)[C@H](O)[C@@H](NC(=O)OC(C)(C)C)c4ccco4)C[C@]2(O)C3(C)C)c1	< 0.00375 µM (active)	< 0.00375 µM (active)	0.0442 µM (active)	< 0.00375 µM (active)	< 0.00375 µM (active)	< 0.00375 µM (active)	< 0.00375 µM (active)	< 0.00375	0.064 µM (active)	6.04 µM (inactive)	0.36 µM (active)	0.00527 µM (active)	< 0.00375 µM (active)	< 0.00375 µM (active)	< 0.00375 µM (active)	< 0.00375 µM (active)	< 0.00375 µM (active)	< 0.00375 µM (active)	–	< 0.00375 µM (active)
CC1(C)CC(=O)C(Cc2ccccc2)(Cc2ccccc2)C(=O)C1	29.2 µM (inactive)	–	> 100 µM (inactive)	> 100 µM (inactive)	> 100 µM (inactive)	> 100 µM (inactive)	> 100 µM (inactive)	> 100	> 100 µM (inactive)	> 100 µM (inactive)	> 100 µM (inactive)	> 100 µM (inactive)	> 100 µM (inactive)	39.8 µM (inactive)	> 100 µM (inactive)	> 100 µM (inactive)	> 100 µM (inactive)	> 100 µM (inactive)	–	> 100 µM (inactive)
COc1ccc(N2CCN(c3ccc4c(c3)NCC(=O)N4)CC2)cc1	25.3 µM (inactive)	28.8 µM (inactive)	25.3 µM (inactive)	> 100 µM (inactive)	17.1 µM (inactive)	> 100 µM (inactive)	23.6 µM (inactive)	49.5	70.6 µM (inactive)	60.7 µM (inactive)	> 100 µM (inactive)	41.8 µM (inactive)	52.5 µM (inactive)	26.9 µM (inactive)	42.5 µM (inactive)	> 100 µM (inactive)	41.4 µM (inactive)	43 µM (inactive)	–	64.4 µM (inactive)
Cc1c(C(=O)O)n2c(C)nnc2c2ccccc12	> 100 µM (inactive)	> 100 µM (inactive)	> 100 µM (inactive)	> 100 µM (inactive)	–	> 100 µM (inactive)	> 100 µM (inactive)	> 100	> 100 µM (inactive)	> 100 µM (inactive)	> 100 µM (inactive)	> 100 µM (inactive)	> 100 µM (inactive)	36 µM (inactive)	> 100 µM (inactive)	> 100 µM (inactive)	> 100 µM (inactive)	> 100 µM (inactive)	> 100 µM (inactive)	> 100 µM (inactive)
CC12CCC(C/C1=N\NC(N)=O)C2(C)C (stereo unspecified)	> 100 µM (inactive)	> 100 µM (inactive)	> 100 µM (inactive)	> 100 µM (inactive)	> 100 µM (inactive)	> 100 µM (inactive)	–	> 100	> 100 µM (inactive)	> 100 µM (inactive)	> 100 µM (inactive)	> 100 µM (inactive)	> 100 µM (inactive)	> 100 µM (inactive)	> 100 µM (inactive)	> 100 µM (inactive)	> 100 µM (inactive)	> 100 µM (inactive)	–	> 100 µM (inactive)
Fc1sc2c(c1F)C1CCC2C1 (stereo unspecified)	19.7 µM (inactive)	41.9 µM (inactive)	51.8 µM (inactive)	> 100 µM (inactive)	–	63.4 µM (inactive)	> 100 µM (inactive)	85.9	> 100 µM (inactive)	58.3 µM (inactive)	> 100 µM (inactive)	> 100 µM (inactive)	> 100 µM (inactive)	> 100 µM (inactive)	48.8 µM (inactive)	> 100 µM (inactive)	42.5 µM (inactive)	43.2 µM (inactive)	> 100 µM (inactive)	> 100 µM (inactive)
